Here are results for three molecules from ChEMBL document CHEMBL4346735, “Discovery and pharmacological evaluation of indole derivatives as potent and selective RORγt inverse agonist for multiple autoimmune conditions” (Bioorg Med Chem Lett, 2019).

Series [1] can be described thus: Clearance in Balb/c mouse at 3 mg/kg, iv administered as single dose by LC-MS/MS analysis. The settings on record: in vivo. It counts as ADME, organism-based.
Series [2] has as its target T1, Nuclear receptor ROR-gamma (Homo sapiens, UniProt P51449).
T1 sequence (P51449 whole entry): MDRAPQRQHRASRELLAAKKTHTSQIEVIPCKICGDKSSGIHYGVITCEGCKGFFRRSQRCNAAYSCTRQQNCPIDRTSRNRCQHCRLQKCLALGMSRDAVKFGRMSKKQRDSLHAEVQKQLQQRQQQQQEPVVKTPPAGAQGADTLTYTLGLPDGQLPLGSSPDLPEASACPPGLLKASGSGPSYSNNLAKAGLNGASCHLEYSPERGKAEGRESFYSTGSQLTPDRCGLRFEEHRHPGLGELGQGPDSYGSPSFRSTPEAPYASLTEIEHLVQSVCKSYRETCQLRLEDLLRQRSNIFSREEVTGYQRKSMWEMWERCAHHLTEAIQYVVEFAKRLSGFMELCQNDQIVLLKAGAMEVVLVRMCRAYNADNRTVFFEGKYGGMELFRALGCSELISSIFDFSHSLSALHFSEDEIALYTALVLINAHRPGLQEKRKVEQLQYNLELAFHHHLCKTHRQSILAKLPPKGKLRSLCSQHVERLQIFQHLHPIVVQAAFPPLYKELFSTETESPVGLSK
As to the kind of experiment: Transactivation of recombinant GAL4-DBD fused RORgammat LBD (unknown origin) expressed in HEK293T cells incubated for 18 to 24 hrs by dual-Glo luciferase assay. In kind it is cell-based.

Series [3] is described as follows: Drug metabolism in human pooled liver microsomes assessed as oxidation metabolic rate at 1 uM preincubated for 5 mins followed by NADPH addition after 30 mins by LC-MS/MS analysis. In kind it is ADME, Microsome. The settings on record: 0.5 h.
Series [4] can be described thus: Oral bioavailability in Balb/c mouse at 10 mg/kg administered via gavage by LC-MS/MS analysis. It counts as ADME, organism-based. The settings on record: in vivo.
The nature of series [5]: Drug metabolism in rat liver microsomes assessed as oxidation metabolic rate at 1 uM preincubated for 5 mins followed by NADPH addition after 30 mins by LC-MS/MS analysis. In kind it is ADME, Microsome. The settings on record: 0.5 h. In general terms: Liver microsomes are a subcellular fraction often used to study metabolism.
The nature of series [6]: Metabolic stability in rat hepatocytes assessed as parent compound remaining after 30 mins. It counts as ADME, cell-based, Hepatocyte. The settings on record: read-out: Stability.
Series [7] in a line: Drug metabolism in mouse liver microsomes assessed as oxidation metabolic rate at 1 uM preincubated for 5 mins followed by NADPH addition after 30 mins by LC-MS/MS analysis. It counts as ADME, Microsome. The note with it: 0.5 h.
Series [8] deals with T1, Nuclear receptor ROR-gamma. The series can be described thus: Inverse agonist activity at GST-tagged RORgammat LBD (unknown origin) using fluorescein-D22 co-activator peptide as substrate incubated for 1 hr by TR-FRET assay. In general terms: Time-resolved FRET reads energy transfer from a long-lived donor to a nearby acceptor.
Series [9] can be described thus: Half life in Balb/c mouse at 3 mg/kg, iv administered as single dose by LC-MS/MS analysis. It counts as ADME, organism-based. The settings on record: in vivo.
Series [10] is described as follows: AUC (0 to t) in Balb/c mouse at 3 mg/kg, iv administered as single dose by LC-MS/MS analysis. In kind it is ADME, organism-based. The note with it: in vivo.
Series [11] can be described thus: AUC (0 to 24 hrs) in Sprague-Dawley rat at 10 mg/kg, po via gavage measured up to 24 hrs by LC-MS/MS analysis. It counts as ADME, organism-based. More on the design: time < 24 hr, dose 10 mg/kg, route oral. The note with it: in vivo.
Series [12] in a line: Oral bioavailability in Sprague-Dawley rat at 10mg/kg via gavage measured up to 24 hrs by LC-MS/MS analysis. In kind it is ADME, organism-based. The settings on record: in vivo.
The nature of series [13]: AUC (0 to 24 hrs) in Sprague-Dawley rat at 3 mg/kg, iv administered as single dose measured up to 24 hrs by LC-MS/MS analysis. In kind it is ADME, organism-based. More on the design: time < 24 hr, dose 3 mg/kg, route intravenous. The note with it: in vivo.
Series [14] is described as follows: AUC (0 to infinity) in Sprague-Dawley rat at 10 mg/kg, po via gavage measured up to 24 hrs by LC-MS/MS analysis. In kind it is ADME, organism-based. Also noted: dose 10 mg/kg, time infinity, route oral. The settings on record: in vivo.
A short description of series [15]: Tmax in Balb/c mouse at 10 mg/kg, po. It counts as ADME, organism-based. The note with it: in vivo.
Series [16] in a line: Clearance in Balb/c mouse at 3 mg/kg, iv. In kind it is ADME, organism-based. The note with it: in vivo.
The nature of series [17]: Volume of distribution at steady state in Sprague-Dawley rat at 3 mg/kg, iv administered as single dose measured up to 24 hrs by LC-MS/MS analysis. It counts as ADME, organism-based. The settings on record: in vivo, read-out: Vdss.
A short description of series [18]: AUC (0 to infinity) in Balb/c mouse at 3 mg/kg, iv. The settings on record: in vivo. More on the design: dose 3 mg/kg, route intravenous, time infinity. In kind it is ADME, organism-based.
Series [19] is described as follows: Clearance in Sprague-Dawley rat at 3 mg/kg, iv administered as single dose measured up to 24 hrs by LC-MS/MS analysis. In kind it is ADME, organism-based. The settings on record: in vivo.
A short description of series [20]: Half life in Sprague-Dawley rat at 3 mg/kg, iv administered as single dose measured up to 24 hrs by LC-MS/MS analysis. In kind it is ADME, organism-based. The settings on record: in vivo.
Series [21] in a line: AUC (0 to infinity) in Sprague-Dawley rat at 3 mg/kg, iv administered as single dose measured up to 24 hrs by LC-MS/MS analysis. Also noted: dose 3 mg/kg, time infinity, route intravenous. In kind it is ADME, organism-based. The settings on record: in vivo.
A short description of series [22]: Oral bioavailability in Balb/c mouse at 10mg/kg. It counts as ADME, organism-based. The settings on record: in vivo.
Series [23] is described as follows: Volume of distribution at steady state in Balb/c mouse at 3 mg/kg, iv. The settings on record: in vivo, read-out: Vdss. It counts as ADME, organism-based.
Series [24] in a line: AUC (0 to infinity) in Balb/c mouse at 10 mg/kg, po. In kind it is ADME, organism-based. More on the design: dose 10 mg/kg, time infinity, route oral. The note with it: in vivo.
The nature of series [25]: AUC (0 to 24 hrs) in Balb/c mouse at 3 mg/kg, iv. In kind it is ADME, organism-based. More on the design: time < 24 hr, dose 3 mg/kg, route intravenous. The settings on record: in vivo.
Series [26] can be described thus: AUC (0 to 24 hrs) in Balb/c mouse at 10 mg/kg, po. In kind it is ADME, organism-based. More on the design: time < 24 hr, dose 10 mg/kg, route oral. The settings on record: in vivo.
A short description of series [27]: Cmax in Balb/c mouse at 10 mg/kg, po. In kind it is ADME, organism-based. More on the design: dose 10 mg/kg, route oral. The note with it: in vivo.
Series [28] can be described thus: Half life in Balb/c mouse at 10 mg/kg, po. In kind it is ADME, organism-based. The note with it: in vivo.
Series [29] in a line: Half life in Sprague-Dawley rat at 10 mg/kg, po via gavage measured up to 24 hrs by LC-MS/MS analysis. In kind it is ADME, organism-based. The settings on record: in vivo.
The nature of series [30]: Tmax in Sprague-Dawley rat at 10 mg/kg, po via gavage measured up to 24 hrs by LC-MS/MS analysis. In kind it is ADME, organism-based. The settings on record: in vivo.
The nature of series [31]: Cmax in Sprague-Dawley rat at 10 mg/kg, po via gavage measured up to 24 hrs by LC-MS/MS analysis. It counts as ADME, organism-based. More on the design: dose 10 mg/kg, route oral. The settings on record: in vivo.
Series [32] can be described thus: Half life in Balb/c mouse at 3 mg/kg, iv. In kind it is ADME, organism-based. The note with it: in vivo.
Series [33] addresses T2, Nuclear receptor ROR-gamma (Homo sapiens) (UniProt P51449).
T2 sequence (whole entry): T1 sequence (P51449 whole entry)
The series can be described thus: Transactivation of recombinant GAL4-DBD fused RORgammat LBD (unknown origin) expressed in HEK293T cells at 1 uM incubated for 18 to 24 hrs by dual-Glo luciferase assay relative to control. In kind it is cell-based.

A short description of series [34]: Metabolic stability in mouse liver microsomes assessed as parent compound remaining at 1 uM preincubated for 5 mins followed by NADPH addition after 30 mins by LC-MS/MS analysis. It counts as ADME, Microsome. The note with it: read-out: Stability.

pIC50: −log10 of the molar value.

Regarding `O=C(O)c1ccc(-n2nc(C(=O)c3c(Cl)cccc3Cl)c3ccccc32)cc1`, in [1], the clearance was found to be 19.6 mL/min/kg. Moreover, the pIC50 is 7.54 in series [2] and 8.42 in [8]. Further, the Drug metabolism was 0.07 nmol/min/mg in [3], 0.18 nmol/min/mg in series [5] and < 0.04 nmol/min/mg in series [7]. The molecule further registered a bioavailability in series [4] of 29%. Moreover, the remaining at 0.5 h in series [6] turned out to be 17%. In series [9], this molecule gave a half-life of 1.4 h. The same molecule displayed an AUC(0-t) in series [10] of 5.9 µM·h.
Consider `O=C([O-])c1ccc(-n2cc(C(=O)c3c(Cl)cccc3Cl)c3cccc(F)c32)cc1.[Na+]`, for which the AUC(0-t) at 24 h in [11] amounted to 6.7 µM·h; in series [13], 3.69 µM·h; in [25] it was 4.2 µM·h; in series [26], 12.6 µM·h. Besides, the bioavailability in [12] worked out at 50%; in series [22] it was 91%. Further, the AUC(0-inf) in series [14] is 7.59 µM·h; in [18], 4.6 µM·h; in series [21], 4.11 µM·h; in series [24], 12.7 µM·h. The Tmax in [15] and in series [30] was 0.5 h throughout. The clearance worked out at 25.2 mL/min/kg in series [16] and 28.9 mL/min/kg in series [19]. The values for the Vd in series [17] and in series [23] were 4.32 L/kg and 4.3 L/kg, respectively. The half-life is 3.47 h in series [20], 3.5 h in series [28], 2.54 h in [29] and 2.7 h in [32]. Further, the results for the Cmax in series [27] and in series [31] were 7 µM and 3 µM, respectively.
As for `O=C(O)c1ccc(-n2cc(C(=O)c3c(Cl)cccc3Cl)c3ccncc32)cc1`, the inhibition in [33] amounted to 27%. Moreover, in [34], the remaining at 0.5 h, 1 µM amounted to 100%.

The term clearance denotes a measure of how efficiently the substance is removed, as volume per time. In general, pIC50 refers to the IC50 on a negative log10 scale, so that one unit is a factor of ten. By bioavailability is commonly meant the share of a dose that reaches the circulation, judged against a reference dose that is usually intravenous. Higher therefore signals much systemic uptake. As usually defined, the half-life is the time needed for the level to fall by half in the phase considered. A high value points to slow decline. What is called AUC(0-t) is the area under the concentration-time curve up to a stated or last time point. Low readings indicate less exposure, high ones more exposure. Broadly, the AUC(0-inf) is total exposure, with the tail of the curve extrapolated. A lower AUC(0-inf) goes with low exposure. In general, Tmax refers to the time at which the peak concentration occurs. As usually defined, the Cmax is the peak of the concentration-time curve. Broadly, the inhibition is how much of the control response was suppressed.
